{"source": "patent US9758412B2", "about": "“Device for purifying liquid wastewater, and method for cleaning liquid wastewater using said device” (CENTRE NATIONAL DE LA RECHERCHE SCIENTIFIQUE (C.N.R.S.), priority 2012, dated 2017)", "key": {"Xenopus larvae [1]": {"tested_on": "Xenopus larvae", "conditions": "cyclophosphamide 20 mg/L in river water; compared with negative control T(−) and sanitized water D8"}, "Xenopus larvae [2]": {"tested_on": "Xenopus larvae", "conditions": "stage 50 to 54, devices: diuron-spiked tank water after 10 days of circulation, T(+): cyclophosphamide 20 mg/L in river water", "protocol": "The mass of Tubifex tubifex worms is of the order of 500 mg (fresh weight) per sanitizing device and is representative of the average density of these oligochaete worms in the natural environment (56 000 oligochaete worms/m^2 of river).\nThe acute toxicity of the sanitized water is measured by incubating Xenopus larvae, selected at a stage of development of 50 to 54 […], for a period of 12 days with said sanitized water on larvae. This measurement permits observation of the signs of intoxication of the larvae induced by exposure to the water obtained at the outlet of the sanitizing device at the end of treatment."}}}
{"smiles": "O=P1(N(CCCl)CCCl)NCCCO1", "note": "(stereo not drawn) [T(+), cyclophosphamide]", "values": [{"measurement": "Genotoxicity (induction of micronuclei)", "setting": "Xenopus larvae [1]", "value": "confirmed genotoxicity"}, {"measurement": "Toxicity, 1 to 5 days", "setting": "Xenopus larvae [2]", "value": "Lethal"}, {"measurement": "Toxicity, 5 to 12 days", "setting": "Xenopus larvae [2]", "value": "Lethal"}]}
